In brackets after ≈: the same amount, converted by molar mass. Activity calls are given as the source filed them. No cut-off for these calls is given here.
How the values were obtained:
Candida albicans [1] = experiment: Downregulation of CDR1 expression in Candida albicans 0304103 at 32 ug/mL incubated for 24 hrs by RT q-PCR analysis; assay type: functional; conditions: dose 32.0 µg/ml
Candida albicans [2] = experiment: Downregulation of GCA1 expression in Candida albicans 0304103 at 32 ug/mL incubated for 24 hrs by RT q-PCR analysis; assay type: functional; conditions: dose 32.0 µg/ml
Candida albicans [3] = experiment: Synergetic antifungal activity against Candida albicans 9884 assessed as fractional inhibitory concentration index incubated for 24 hrs in the presence of fluconazole by checkerboard microdilution method; assay type: functional
Candida albicans [4] = experiment: Antifungal activity against Candida albicans 0304103 infected in ICR mouse assessed as reduction in kidney fungal burden at 10 mg/kg, ip administered for 5 consecutive days; assay type: functional, organism-based; conditions: time 5.0 day
Candida albicans [5] = experiment: Downregulation of CDR1 expression in Candida albicans 0304103 at 32 ug/mL incubated for 24 hrs in the presence of fluconazole by RT q-PCR analysis; assay type: functional; conditions: dose 32.0 µg/ml
Histone deacetylase 1 = Histone deacetylase 1 (Homo sapiens, UniProt Q13547); experiment: Inhibition of full-length recombinant human HDAC1 (1 to 482 residues) expressed in baculovirus infected insect cells using […] as substrate incubated for 30 mins by fluorescence based analysis; design: species or system Insect cell
Histone deacetylase 1, sequence (Q13547 whole entry, the tested form may be a part): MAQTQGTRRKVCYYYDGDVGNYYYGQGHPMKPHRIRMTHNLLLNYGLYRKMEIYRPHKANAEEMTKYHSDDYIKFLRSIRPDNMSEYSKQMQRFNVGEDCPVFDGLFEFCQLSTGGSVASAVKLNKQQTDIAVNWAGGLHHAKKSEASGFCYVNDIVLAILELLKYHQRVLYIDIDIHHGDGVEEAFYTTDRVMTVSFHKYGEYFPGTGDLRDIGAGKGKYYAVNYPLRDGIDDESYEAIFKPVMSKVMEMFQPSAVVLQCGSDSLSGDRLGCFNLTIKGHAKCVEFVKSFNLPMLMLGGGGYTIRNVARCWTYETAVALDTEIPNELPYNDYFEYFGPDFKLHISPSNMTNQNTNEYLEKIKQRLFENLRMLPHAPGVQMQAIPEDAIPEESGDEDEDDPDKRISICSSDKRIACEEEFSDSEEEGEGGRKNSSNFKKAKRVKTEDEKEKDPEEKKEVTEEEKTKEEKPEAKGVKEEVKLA

Candida albicans [6] = assay type: functional, 0304103; conditions: time 24 hrs
Description: Synergetic antifungal activity against Candida albicans 0304103 assessed as fractional inhibitory concentration index incubated for 24 hrs in the presence of fluconazole by checkerboard microdilution method

Candida albicans [7] = experiment: Downregulation of ADH5 expression in Candida albicans 0304103 at 32 ug/mL incubated for 24 hrs in the presence of fluconazole by RT q-PCR analysis; assay type: functional; conditions: dose 32.0 µg/ml
Candida albicans [8] = experiment: Antifungal activity against Candida albicans SC5314 assessed as fungal growth inhibition incubated for 24 hrs by broth dilution method; assay type: functional
Cryptococcus neoformans [9] = experiment: Synergetic antifungal activity against Cryptococcus neoformans 011405 assessed as microbial growth inhibition incubated for 24 hrs in the presence of fluconazole by checkerboard microdilution method; assay type: functional
Candida albicans [10] = experiment: Antifungal activity against Candida albicans 9884 assessed as microbial growth inhibition; assay type: functional
in vitro = conditions: human, HUVEC cells
Description: Cytotoxicity against HUVECs assessed as inhibition of cell growth incubated for 48 hrs by CCK8 assay

Candida albicans [11] = experiment: Downregulation of MDR1 expression in Candida albicans 0304103 at 32 ug/mL incubated for 24 hrs by RT q-PCR analysis; assay type: functional; conditions: dose 32.0 µg/ml
Candida albicans [12] = experiment: Downregulation of ERG11 expression in Candida albicans 0304103 at 32 ug/mL incubated for 24 hrs by RT q-PCR analysis; assay type: functional; conditions: dose 32.0 µg/ml
K562 = experiment: Antiproliferative activity against human K562 cells incubated for 48 hrs by CCK8 assay; assay type: functional, cell-based; conditions: K562, 48 h
[Candida] auris [13] = Synergetic antifungal activity against Candida auris 0030 assessed as fractional inhibitory concentration index incubated for 24 hrs in the presence of fluconazole by checkerboard microdilution method; assay type: functional, Candidozyma auris
Nakaseomyces glabratus [14] = experiment: Antifungal activity against Candida glabrata 4408 assessed as microbial growth inhibition; assay type: functional
Candida albicans [15] = experiment: microbe, parasite or virus in culture; assay type: functional; conditions: 0304103, time 24 hrs
Description: Synergetic antifungal activity against Candida albicans 0304103 assessed as microbial growth inhibition incubated for 24 hrs in the presence of fluconazole by checkerboard microdilution method

Candida albicans [16] = experiment: Downregulation of GCA1 expression in Candida albicans 0304103 at 32 ug/mL incubated for 24 hrs in the presence of fluconazole by RT q-PCR analysis; assay type: functional; conditions: dose 32.0 µg/ml
HL-60 = experiment: Antiproliferative activity against human HL-60 cells incubated for 48 hrs by CCK8 assay; assay type: functional, cell-based; conditions: HL-60, 48 h
[Candida] auris [17] = Antifungal activity against Candida auris 0029 assessed as microbial growth inhibition; assay type: functional; conditions: Candidozyma auris
Candida albicans [18] = experiment: microbe, parasite or virus in culture; assay type: functional; conditions: 0304103
Description: Antifungal activity against Candida albicans 0304103 assessed as microbial growth inhibition

Candida albicans [19] = experiment: Antifungal activity against Candida albicans 0304103 infected in ICR mouse assessed as decrease in kidney fungal burden at 10 mg/kg, ip administered for 5 consecutive days in the presence of fluconazole; assay type: functional, organism-based; conditions: time 5.0 day
Histone deacetylase = experiment: Inhibition of total HDAC in human HUVEC cells using Boc-Lys(Ac)-AMC as substrate preincubated for 12 hrs followed by substrate addition measured after 6 hrs by microtiter plate reader analysis; assay type: cell-based
Candida albicans [20] = experiment: Synergetic antifungal activity against Candida albicans 10061 assessed as microbial growth inhibition incubated for 24 hrs in the presence of fluconazole by checkerboard microdilution method; assay type: functional
Nakaseomyces glabratus [21] = experiment: Synergetic antifungal activity against Candida glabrata 4408 assessed as microbial growth inhibition incubated for 24 hrs in the presence of fluconazole by checkerboard microdilution method; assay type: functional
Candida albicans [22] = experiment: Downregulation of CDR2 expression in Candida albicans 0304103 at 32 ug/mL incubated for 24 hrs in the presence of fluconazole by RT q-PCR analysis; assay type: functional; conditions: dose 32.0 µg/ml
Candida albicans [23] = experiment: Synergistic antibiofilm activity against FLC-resistant Candida albicans 0304103 assessed as inhibition of fungal growth at 32 ug/mL and measured for 48 hrs in the presence of fluconazole by time-growth curve assay; assay type: functional; design: scale not given: the % may be the effect or the level left; conditions: dose 32 µg/ml
Candida albicans [24] = experiment: Synergistic antibiofilm activity against FLC-resistant Candida albicans 0304103 assessed as inhibition of biofilm formation at 64 ug/mL incubated for 24 hrs in presence of by XTT reduction assay relative to control; assay type: functional; design: scale not given: the % may be the effect or the level left; conditions: dose 64 µg/ml
[Candida] auris [25] = Synergetic antifungal activity against Candida auris 0029 assessed as microbial growth inhibition incubated for 24 hrs in the presence of fluconazole by checkerboard microdilution method; assay type: functional; conditions: Candidozyma auris
Cryptococcus neoformans [26] = experiment: Antifungal activity against Cryptococcus neoformans 011405 assessed as microbial growth inhibition; assay type: functional
Nakaseomyces glabratus [27] = experiment: Synergetic antifungal activity against Candida glabrata 4408 assessed as fractional inhibitory concentration index incubated for 24 hrs in the presence of fluconazole by checkerboard microdilution method; assay type: functional
Candida albicans [28] = experiment: Antifungal activity against Candida albicans 10061 assessed as microbial growth inhibition; assay type: functional
Candida albicans [29] = experiment: Downregulation of CDR2 expression in Candida albicans 0304103 at 32 ug/mL incubated for 24 hrs by RT q-PCR analysis; assay type: functional; conditions: dose 32.0 µg/ml
[Candida] auris [30] = Synergetic antifungal activity against Candida auris 0029 assessed as fractional inhibitory concentration index incubated for 24 hrs in the presence of fluconazole by checkerboard microdilution method; assay type: functional, Candidozyma auris
Candida albicans [31] = experiment: Antifungal activity against Candida albicans 0304103 assessed as reduction in yeast to hypha transition at 32 ug/mL incubated for 2 hrs by inverse fluorescence microscopy; assay type: functional, organism-based; conditions: dose 32.0 µg/ml
Candida albicans [32] = experiment: Synergistic antifungal activity against Candida albicans 0304103 assessed as reduction in yeast to hypha transition at 32 ug/mL incubated for 2 hrs in the presence of fluconazole by inverse fluorescence microscopy; assay type: functional, organism-based; conditions: dose 32.0 µg/ml
Cryptococcus neoformans [33] = experiment: Antifungal activity against Cryptococcus neoformans H99 assessed as fungal growth inhibition incubated for 24 hrs by broth dilution method; assay type: functional
Candida albicans [34] = experiment: Synergetic antifungal activity against Candida albicans 9172 assessed as fractional inhibitory concentration index incubated for 24 hrs in the presence of fluconazole by checkerboard microdilution method; assay type: functional
Candida albicans [35] = experiment: Synergetic antifungal activity against Candida albicans 10061 assessed as fractional inhibitory concentration index incubated for 24 hrs in the presence of fluconazole by checkerboard microdilution method; assay type: functional
Candida albicans [36] = experiment: Synergetic antifungal activity against Candida albicans 9884 assessed as microbial growth inhibition incubated for 24 hrs in the presence of fluconazole by checkerboard microdilution method; assay type: functional
[Candida] auris [37] = Synergetic antifungal activity against Candida auris 0030 assessed as microbial growth inhibition incubated for 24 hrs in the presence of fluconazole by checkerboard microdilution method; assay type: functional; conditions: Candidozyma auris
Candida albicans [38] = experiment: Synergetic antifungal activity against Candida albicans 9172 assessed as microbial growth inhibition incubated for 24 hrs in the presence of fluconazole by checkerboard microdilution method; assay type: functional
Candida albicans [39] = experiment: Antifungal activity against Candida albicans 9172 assessed as microbial growth inhibition; assay type: functional
Candida albicans [40] = experiment: Antibiofilm activity against FLC-resistant Candida albicans 0304103 assessed as inhibition of biofilm formation at 64 ug/mL incubated for 24 hrs by XTT reduction assay; assay type: functional, organism-based; conditions: dose 64.0 µg/ml
Candida albicans [41] = experiment: Antibiofilm activity against FLC-resistant Candida albicans 0304103 assessed as reduction in fungal growth at 32 ug/mL and measured for 48 hrs by time-growth curve assay; assay type: functional, organism-based; conditions: dose 32.0 µg/ml
HEL = experiment: Antiproliferative activity against human HEL cells incubated for 48 hrs by CCK8 assay; assay type: functional, cell-based
Candida albicans [42] = experiment: Downregulation of ERG11 expression in Candida albicans 0304103 at 32 ug/mL incubated for 24 hrs in the presence of fluconazole by RT q-PCR analysis; assay type: functional; conditions: dose 32.0 µg/ml
Candida albicans [43] = experiment: Downregulation of MDR1 expression in Candida albicans 0304103 at 32 ug/mL incubated for 24 hrs in the presence of fluconazole by RT q-PCR analysis; assay type: functional; conditions: dose 32.0 µg/ml
[Candida] auris [44] = Antifungal activity against Candida auris 0030 assessed as microbial growth inhibition; assay type: functional; conditions: Candidozyma auris
Candida albicans [45] = experiment: Downregulation of ADH5 expression in Candida albicans 0304103 at 32 ug/mL incubated for 24 hrs by RT q-PCR analysis; assay type: functional; conditions: dose 32.0 µg/ml
Cryptococcus neoformans [46] = experiment: Synergetic antifungal activity against Cryptococcus neoformans 011405 assessed as fractional inhibitory concentration index incubated for 24 hrs in the presence of fluconazole by checkerboard microdilution method; assay type: functional

## Cc1nnc2n1-c1sc3c(c1C(c1ccc(Cl)cc1)=N[C@H]2CC(=O)NCc1ccc(C(=O)NO)cc1)CCCC3
Candida albicans [1]
  Activity: Active
Candida albicans [2]
  Activity: Active
Candida albicans [3]
  fractional inhibitory concentration index (FICI): 0.19
Candida albicans [4]
  Activity: inactive
Candida albicans [5]
  Activity: Active
Histone deacetylase 1
  IC50: 2400 nM
Candida albicans [6]
  fractional inhibitory concentration index (FICI): 0.063
Candida albicans [7]
  Activity: Active
Candida albicans [8]
  MIC80: > 64 µg/mL
Cryptococcus neoformans [9]
  MIC80: 2 µg/mL
Candida albicans [10]
  MIC80: > 64 µg/mL
In vitro
  IC50 at 48 h: 18 µM
Candida albicans [11]
  Activity: Active
Candida albicans [12]
  Activity: Active
K562
  IC50: > 10 µM
[Candida] auris [13]
  fractional inhibitory concentration index (FICI): 1.5
Nakaseomyces glabratus [14]
  MIC80: 8 µg/mL (≈ 13.9 µM)
Candida albicans [15]
  MIC80: 2 µg/mL (≈ 3.48 µM)
Candida albicans [16]
  Activity: Active
HL-60
  IC50: 3.1 µM
[Candida] auris [17]
  MIC80: > 64 µg/mL
Candida albicans [18]
  MIC80: > 64 µg/mL
Candida albicans [19]
  Activity: Active
Histone deacetylase
  IC50: 4.3 µM
Candida albicans [20]
  MIC80: 2 µg/mL
Nakaseomyces glabratus [21]
  MIC80: 2 µg/mL
Candida albicans [22]
  Activity: Active
Candida albicans [23]
  Activity: 100%
Candida albicans [24]
  Activity: 80%
[Candida] auris [25]
  MIC80: 32 µg/mL
Cryptococcus neoformans [26]
  MIC80: 32 µg/mL (≈ 55.6 µM)
Nakaseomyces glabratus [27]
  fractional inhibitory concentration index (FICI): 0.28
Candida albicans [28]
  MIC80: > 64 µg/mL
Candida albicans [29]
  Activity: Active
[Candida] auris [30]
  fractional inhibitory concentration index (FICI): 1.5
Candida albicans [31]
  Activity: inactive
Candida albicans [32]
  Activity: Active
Cryptococcus neoformans [33]
  MIC80: 8 µg/mL (≈ 13.9 µM)
Candida albicans [34]
  fractional inhibitory concentration index (FICI): 0.07
Candida albicans [35]
  fractional inhibitory concentration index (FICI): 0.047
Candida albicans [36]
  MIC80: 4 µg/mL
[Candida] auris [37]
  MIC80: 32 µg/mL
Candida albicans [38]
  MIC80: 4 µg/mL
Candida albicans [39]
  MIC80: > 64 µg/mL
Candida albicans [40]
  Activity: inactive
Candida albicans [41]
  Activity: inactive
HEL
  IC50: 7.2 µM
Candida albicans [42]
  Activity: Active
Candida albicans [43]
  Activity: Active
[Candida] auris [44]
  MIC80: > 64 µg/mL
Candida albicans [45]
  Activity: Active
Cryptococcus neoformans [46]
  fractional inhibitory concentration index (FICI): 0.31
